From EPA's CvTdb concentration-time database

Columns and labels:
Rat [1] = experiment: concentration in liver after dosing; conditions: 3360 h; dosed: Perfluorodecanoic acid; 10 mg/kg; oral; Female; Harlan Sprague Dawley
Rat [2] = experiment: concentration in brain after dosing; conditions: 24 h; dosed: Perfluorodecanoic acid; 10 mg/kg; oral; Female; Harlan Sprague Dawley
Rat [3] = experiment: concentration in plasma after dosing; conditions: 2 min; dosed: dichloroacetic acid; 10 mg/kg; iv; Male; F344
Rat [4] = experiment: concentration in plasma after dosing; conditions: 40 min; dosed: dichloroacetic acid; 40 mg/kg; oral; Female; Harlan Sprague Dawley
Rat [5] = experiment: concentration in plasma after dosing; conditions: 6 h; dosed: Primidone; 30 mg/kg; oral; Male; F344
Rat [6] = experiment: concentration in plasma after dosing; conditions: 9 h; dosed: Primidone; 80 mg/kg; oral; Male; F344
Rat [7] = experiment: concentration in plasma after dosing; conditions: 3 h; dosed: Primidone; 130 mg/kg; oral; Female; F344
Rat [8] = experiment: concentration in plasma after dosing; conditions: 0.25 h; dosed: Wyeth-14643; 5.0 mg/kg; oral; Male; Sprague-Dawley
Rat [9] = experiment: concentration in plasma after dosing; conditions: 0.25 h; dosed: Wyeth-14643; 2.0 mg/kg; iv; Male; Sprague-Dawley
Rat [10] = experiment: concentration in plasma after dosing; conditions: 1 h; dosed: Wyeth-14643; 1.0 mg/kg; oral; Male; Sprague-Dawley
rat [11] = experiment: concentration in plasma after dosing; negative times count back from the end of exposure; conditions: dosed: trichloroethylene, inhalation, duration: 4 hr, female, F344
Rat [12] = experiment: concentration in brain after dosing; conditions: 6 h; dosed: Fluorotelomer alcohol 8+2; 24 mg/kg; oral; Male; Harlan Sprague Dawley
Rat [13] = experiment: concentration in kidney after dosing; conditions: 1 h; dosed: Fluorotelomer alcohol 8+2; 80 mg/kg; oral; Female; Harlan Sprague Dawley
Rat [14] = experiment: concentration in plasma after dosing; conditions: 4 h; dosed: Thiodiglycolic Acid; 20 mg/kg; iv; Male; Harlan Sprague Dawley
Rat [15] = experiment: concentration in heart after dosing; conditions: 20 min; dosed: Thiodiglycolic Acid; 20 mg/kg; iv; Female; Harlan Sprague Dawley
Rat [16] = experiment: concentration in liver after dosing; conditions: 5.333 h; dosed: Thiodiglycolic Acid; 20 mg/kg; iv; Female; Harlan Sprague Dawley
Rat [17] = experiment: concentration in liver after dosing; conditions: 40 min; dosed: Thiodiglycolic Acid; 20 mg/kg; iv; Female; Harlan Sprague Dawley
Rat [18] = experiment: concentration in thymus after dosing; conditions: 4 h; dosed: Thiodiglycolic Acid; 20 mg/kg; iv; Male; Harlan Sprague Dawley
Rat [19] = experiment: concentration in liver after dosing; conditions: 6.667 h; dosed: Thiodiglycolic Acid; 20 mg/kg; iv; Female; Harlan Sprague Dawley
Rat [20] = experiment: concentration in heart after dosing; conditions: 4 h; dosed: Thiodiglycolic Acid; 20 mg/kg; iv; Female; Harlan Sprague Dawley
Rat [21] = experiment: concentration in plasma after dosing; conditions: 6 h; dosed: Bis 2-Chloroethoxy Methane; 20 mg/kg; iv; Female; F344
Rat [22] = experiment: concentration in thymus after dosing; conditions: 20 min; dosed: Bis 2-Chloroethoxy Methane; 20 mg/kg; iv; Male; F344
Rat [23] = experiment: concentration in plasma after dosing; conditions: 2 h; dosed: Bis 2-Chloroethoxy Methane; 20 mg/kg; iv; Male; F344
Rat [24] = experiment: concentration in liver after dosing; conditions: 10 min; dosed: Bis 2-Chloroethoxy Methane; 20 mg/kg; iv; Male; F344
Rat [25] = experiment: concentration in thymus after dosing; conditions: 3 h; dosed: Bis 2-Chloroethoxy Methane; 20 mg/kg; iv; Female; F344
Rat [26] = experiment: concentration in plasma after dosing; conditions: 5 h; dosed: Bis 2-Chloroethoxy Methane; 20 mg/kg; iv; Female; F344
Rat [27] = experiment: concentration in heart after dosing; conditions: 20 min; dosed: Bis 2-Chloroethoxy Methane; 20 mg/kg; iv; Male; F344
Rat [28] = experiment: concentration in thymus after dosing; conditions: 3 h; dosed: Bis 2-Chloroethoxy Methane; 20 mg/kg; iv; Female; F344; remark: listed apart in the source
Rat [29] = experiment: concentration in thymus after dosing; conditions: 5 h; dosed: Bis 2-Chloroethoxy Methane; 20 mg/kg; iv; Female; F344
Rat [30] = experiment: concentration in heart after dosing; conditions: 4 h; dosed: Bis 2-Chloroethoxy Methane; 20 mg/kg; iv; Male; F344
Rat [31] = experiment: concentration in heart after dosing; conditions: 20 min; dosed: Bis 2-Chloroethoxy Methane; 20 mg/kg; iv; Female; F344
Rat [32] = experiment: concentration in heart after dosing; conditions: 2 h; dosed: Bis 2-Chloroethoxy Methane; 20 mg/kg; iv; Female; F344
Rat [33] = experiment: concentration in plasma after dosing; conditions: 0.25 h; dosed: Di-n-butyl phthalate; 100 mg/kg; oral; Male; Sprague-Dawley
Rat [34] = experiment: concentration in plasma after dosing; conditions: 5 min; dosed: Di-n-butyl phthalate; 100 mg/kg; oral; Male; Sprague-Dawley
Rat [35] = experiment: concentration in plasma after dosing; conditions: 6 h; dosed: Di-n-butyl phthalate; 20 mg/kg; iv; Male; Sprague-Dawley

For `O=C(O)C(F)(F)C(F)(F)C(F)(F)C(F)(F)C(F)(F)C(F)(F)C(F)(F)C(F)(F)C(F)(F)F` [Perfluorodecanoic acid], the concentration in liver (Rat [1]) was 6380 ng/g and the concentration in brain (Rat [2]) was 1820 ng/g.
Work on `O=C(O)C(Cl)Cl` [dichloroacetic acid] yielded a concentration in plasma (Rat [3]) of 22900 ng/mL and a concentration in plasma (Rat [4]) of 10600 ng/mL.
`CCC1(c2ccccc2)C(=O)NC(=O)NC1=O` [Phenobarbital] showed a concentration in plasma (Rat [5]) of 3110 ng/mL, a concentration in plasma (Rat [6]) of 6800 ng/mL and a concentration in plasma (Rat [7]) of 5510 ng/mL.
Compound `Cc1cccc(Nc2cc(Cl)nc(SCC(=O)O)n2)c1C` has a concentration in plasma (Rat [8]) of 10600 ng/mL, a concentration in plasma (Rat [9]) of 9460 ng/mL and a concentration in plasma (Rat [10]) of 755 ng/mL.
`O=C(O)C(Cl)(Cl)Cl` [trichloroacetic acid] showed a concentration in plasma (rat [11]; 30 s, 600 ppm) of 21100 ng/mL, a concentration in plasma (rat [11]; 241 s, 600.4 ppm) of 15900 ng/mL and a concentration in plasma (rat [11]; 0.2413 h, 600.4 ppm) of 25200 ng/mL. The concentration in plasma (rat [11]; 0.5005 h, 600.4 ppm) was 28200 ng/mL, the concentration in plasma (rat [11]; 0.963 h, 600 ppm) was 24500 ng/mL and the concentration in plasma (rat [11]; 2.113 h, 600 ppm) was 33800 ng/mL. For the same compound, the concentration in plasma (rat [11]; 4.901 h, 600.4 ppm) was 36600 ng/mL, the concentration in plasma (rat [11]; 5.077 h, 600 ppm) was 46200 ng/mL and the concentration in plasma (rat [11]; 20.89 h, 600.4 ppm) was 8380 ng/mL. For the same compound, the concentration in plasma (rat [11]; 21.02 h, 600 ppm) was 25300 ng/mL, the concentration in plasma (rat [11]; 28.48 h, 600.4 ppm) was 3970 ng/mL and the concentration in plasma (rat [11]; 29.96 h, 600 ppm) was 14100 ng/mL. It also gave a concentration in plasma (rat [11]; 44.93 h, 600.4 ppm) of 1220 ng/mL, a concentration in plasma (rat [11]; 45.37 h, 600 ppm) of 8190 ng/mL and a concentration in plasma (rat [11]; -0.5889 h, 600.4 ppm, during exposure) of 15300 ng/mL. It also gave a concentration in plasma (rat [11]; -3.292 h, 600.4 ppm, during exposure) of 1380 ng/mL and a concentration in plasma (rat [11]; -3.75 h, 600 ppm, during exposure) of 5790 ng/mL.
Work on `OCCC(F)(F)C(F)(F)C(F)(F)C(F)(F)C(F)(F)C(F)(F)C(F)(F)C(F)(F)F` [Fluorotelomer alcohol 8+2] yielded a concentration in brain (Rat [12]) of 323 ng/g and a concentration in kidney (Rat [13]) of 1950 ng/g.
With `O=C(O)CSCC(=O)O` [Thiodiglycolic Acid] the concentration in plasma (Rat [14]) was 339 ng/mL, the concentration in heart (Rat [15]) was 6060 ng/g and the concentration in liver (Rat [16]) was 47900 ng/g. It also gave a concentration in liver (Rat [17]) of 92500 ng/g, a concentration in thymus (Rat [18]) of 904 ng/g and a concentration in liver (Rat [19]) of 1600 ng/g. The concentration in heart (Rat [20]) was 348 ng/g.
`ClCCOCOCCCl` [Bis 2-Chloroethoxy Methane] was tested, and the concentration in plasma (Rat [21]) was 16.9 ng/mL, the concentration in thymus (Rat [22]) was 26300 ng/g and the concentration in plasma (Rat [23]) was 99.4 ng/mL. It also gave a concentration in liver (Rat [24]) of 5360 ng/g, a concentration in thymus (Rat [25]) of 174 ng/g and a concentration in plasma (Rat [26]) of 17.2 ng/mL. For the same compound, the concentration in heart (Rat [27]) was 7220 ng/g, the concentration in thymus (Rat [28]) was 448 ng/g and the concentration in thymus (Rat [29]) was 31.7 ng/g. It also gave a concentration in heart (Rat [30]) of 83.9 ng/g, a concentration in heart (Rat [31]) of 6490 ng/g and a concentration in heart (Rat [32]) of 401 ng/g.
`CCCCOC(=O)c1ccccc1C(=O)O` [Mono-n-butyl phthalate] gave a concentration in plasma (Rat [33]) of 31700 ng/mL, a concentration in plasma (Rat [34]) of 3830 ng/mL and a concentration in plasma (Rat [35]) of 601 ng/mL.
